Legend:
[1] = tested on: IL-1β; test: IL-1β mRNA in OHSC (RT-qPCR); format: cell-based, mice; settings: 50 μM, 10 days, vs vehicle, P<0.001
Method: (§1) FIG. 10. Plots illustrating the effect of Aftin-5 on relative mRNA expression levels of interleukin-1-beta (IL-1β; (A)), interleukin-6 (IL-6; (B)), TNF-alpha (TNFα; (C)) and interleukin-10 (IL-10; (D)) in organotypic hippocampal slice cultures (OHSC). OHSC culture media […] were replaced by incubation medium containing Aftin-5 (50 μM; A50) or vehicle (0.1% DMSO; Veh). 10 days later, total mRNA in lysate was isolated and purified, cDNAs were then synthesized from […] of total mRNA. cDNAs were amplified by quantitative RT-PCR and the relative expression of specific genes was normalized to the housekeeping gene HPRT1 (2^−ΔCt). Mann-Whitney tests were performed and ***p<0.001 indicates significant differences between Aftin-5 and control conditions. Data expressed as means+/−SEM from q=3 independent experiments with n=4-6 inserts/condition and 10 slices/insert. […]
(§2) The impact of Aftin-5 on gene expression of different biomarkers was determined by measuring mRNA levels of selected BDNF, CREB, PS95, INS Receptor/IGF-1 receptor, IL-1β, IL-6 in OHSC treated chronically with Aftin-5 or in a total brain from mice exposed to Aftin-5 at either 8 or 30 mg/Kg. […] Threshold cycles (Ct) of target gene and cyclophilin A (Ppia−control housekeeping gene) were recorded and gene expression was calculated as 2^−ΔΔCt(ΔΔCt=ΔCttreated−ΔCtcontrol, ΔCt=Cttarget−CtPpia). […]

[2] = tested on: IL-6; test: IL-6 mRNA in OHSC (RT-qPCR); format: cell-based, mice; settings: 50 μM, 10 days, vs vehicle, P=0.06
Method: as §1, §2

[3] = tested on: short-term memory (working memory); test: Y-maze spontaneous alternation test; format: in vivo, C57Bl/6J mice; settings: WT mice, 8 mg/kg subcutaneous, 28 days
Method: FIG. 13. Plots illustrating the effect of Aftin-5 on short-term memory (working memory) in Y maze. C57B1/6J mice were exposed sub-cutaneously to Aftin-5 at 8 mg/kg (A8) or vehicle (DMSO/PEG; Veh) during 28 days through an Alzet pump. 3-4 weeks later, cognitive abilities were assessed by the means of the total number of arm entries (A) and the percentage of alternation (B). Mann-Whitney tests were performed and **p<0.01 indicates significant differences between Aftin-5 and control conditions. Data expressed as means+/−SEM with n=15 mice/condition. The spontaneous alternation test (Y maze) is a test to evaluate the short-term memory (working memory) of the animal. This test is carried out in a Y-maze with arms customized by different forms; squares (A), triangles (B) and lines (C). The mouse is placed in one of the arms for 8 min. In this test, the mouse is free to explore spontaneously the three arms of the Y-maze (FIG. 1). During the session, the number of entries of each arm of the Y-maze is counted. At the end of the session, the number of possibility (number of total entries in the arms) and the number of spontaneous alternation are calculated. An alternation is defined by consecutive entries in the three different arms (A-B-C). A mouse with a normal phenotype will tend to explore the novelty. […]

[4] = tested on: CREB; test: CREB mRNA in OHSC (RT-qPCR); format: cell-based; settings: OHSCs from WT mice, 50 μM, 10 days
Method: FIG. 15. Plots illustrating the effect of Aftin-5 on relative mRNA expression levels of Long Term Potentialisation (LTP) biomarkers, i.e CREB (A), PSD95 (B) and BDNF (C) in C57B16J OHSC mice treated chronically with Aftin-5. OHSC culture media of OHSC were replaced by incubation medium containing Aftin-5 (50 μM; A50) or vehicle (0.1% DMSO; Veh). 10 days later, total mRNA in lysate was isolated and purified, cDNAs were then synthesized from […] of total mRNA. cDNAs were amplified by quantitative RT-PCR and the relative expression of specific genes was normalized to the housekeeping gene HPRT1 (2^—ΔCt). […] Data expressed as means+/−SEM from q=3 independent experiments with n=4-6 inserts/condition and 10 slices/insert. […]
The impact of Aftin-5 on gene expression of different biomarkers was determined by measuring mRNA levels of selected BDNF, CREB, PS95, INS Receptor/IGF-1 receptor, IL-1β, IL-6 in OHSC treated chronically with Aftin-5 or in a total brain from mice exposed to Aftin-5 at either 8 or 30 mg/Kg. […] RNA concentration was measured spectrophotometrically at 260 nm in a NanoDrop 2000c (Thermo Scientific, Villebon-sur-Yvette, France) (sample A260 nm/A280 nm ratios over 1.8 indicated reduced genomic DNA contamination). cDNAs were synthesized from 0.5 μg of total RNA with RT^2 First Strand kit (Qiagen, Courtaboeuf, France) according to the manufacturer's protocol and stored at −80° C. […]

[5] = in vitro; settings: rat

Papp at 60 min, 10 μM [5]: ~35 ×10⁻⁶ cm/s
SMILES: CC[C@H](CO)Nc1nc(N(C)c2ccccc2)c2ncn(C(C)C)c2n1 [Aftin-5]
IL-1β-mRNA synthesis [1]: significantly decrease
IL-6 mRNA synthesis [2]: do not achieve significance
spatial memory in Y-maze [3]: improved spatial memory
CREB mRNA [4]: transcriptional upregulation
